Assay [1] addresses Cannabinoid receptor 1 (Rattus norvegicus, UniProt P20272). Nature of the assay: Displacement of [3H]CP-55940 from CB1 receptor in Sprague-Dawley rat cerebellar membrane. Also noted: species or system Cerebellum. Background: Loss of bound radioactivity is the signal in a displacement assay; it reports binding, not function.
The target in assay [2] is Cannabinoid receptor 2 (Homo sapiens, UniProt P34972). The assay can be described thus: Displacement of [3H]WIN-55212-2 from human CB2 receptor expressed in CHO cells. The class given is cell-based.
Cannabinoid receptor 2, sequence (P34972 whole entry): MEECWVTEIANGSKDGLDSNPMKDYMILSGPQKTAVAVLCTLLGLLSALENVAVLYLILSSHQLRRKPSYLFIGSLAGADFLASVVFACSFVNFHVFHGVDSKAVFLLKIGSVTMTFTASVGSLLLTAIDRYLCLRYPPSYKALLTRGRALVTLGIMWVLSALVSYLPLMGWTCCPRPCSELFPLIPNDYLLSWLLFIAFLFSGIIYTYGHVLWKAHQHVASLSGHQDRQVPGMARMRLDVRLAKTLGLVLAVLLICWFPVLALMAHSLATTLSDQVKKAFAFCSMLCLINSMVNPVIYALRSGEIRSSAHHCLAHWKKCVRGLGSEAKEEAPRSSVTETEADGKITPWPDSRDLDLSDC

Cannabinoid receptor 1, sequence (P20272 whole entry): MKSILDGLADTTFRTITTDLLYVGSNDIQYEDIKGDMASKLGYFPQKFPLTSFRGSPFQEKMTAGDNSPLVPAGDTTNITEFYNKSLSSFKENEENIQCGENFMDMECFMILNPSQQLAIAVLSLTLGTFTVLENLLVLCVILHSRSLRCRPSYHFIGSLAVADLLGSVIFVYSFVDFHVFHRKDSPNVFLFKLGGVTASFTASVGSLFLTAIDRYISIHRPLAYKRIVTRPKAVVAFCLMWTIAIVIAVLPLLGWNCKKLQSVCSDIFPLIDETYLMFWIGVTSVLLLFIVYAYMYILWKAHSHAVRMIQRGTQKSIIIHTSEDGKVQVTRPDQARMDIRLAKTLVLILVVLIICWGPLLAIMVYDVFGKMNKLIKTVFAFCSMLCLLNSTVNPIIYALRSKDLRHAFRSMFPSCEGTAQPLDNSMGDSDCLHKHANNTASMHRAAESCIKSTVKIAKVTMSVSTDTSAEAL

The molecule `Cc1c(-c2nnc(C3(c4ccc(Cl)cc4)CC3)o2)nc(-c2ccc(Cl)cc2Cl)n1-c1ccc(Cl)cc1` displayed an IC50 in assay [1] of 15.2 nM.
The molecule `CCc1c(-c2nnc(C3(c4ccc(Cl)cc4Cl)CC3)s2)nc(-c2ccc(Cl)cc2Cl)n1-c1ccc(Br)cc1` returned a half-inhibitory concentration (IC50) in assay [2] of more than 10000 nM.
In assay [2], `CCc1c(-c2nnc(C3(c4ccc(Cl)cc4)CCC3)s2)nc(-c2ccc(Cl)cc2Cl)n1-c1ccc(Br)cc1` gave an IC50 of more than 10000 nM.
Molecule `CCc1c(-c2nnc(C3(c4ccc(Cl)cc4)CCC3)o2)nc(-c2ccc(Cl)cc2Cl)n1-c1ccc(Br)cc1` came in with a half-maximal inhibitory concentration (IC50) in assay [2] of more than 10000 nM.
In turn, `Cc1c(-c2nnc(C3(C(F)(F)F)CC3)s2)nc(-c2ccc(Cl)cc2Cl)n1-c1ccc(Cl)cc1` registered an IC50 in assay [1] of 33.5 nM.
Still for that read-out and setting: as for `Cc1c(-c2nnc(CC(C)C)s2)nc(-c2ccc(Cl)cc2Cl)n1-c1ccc(Cl)cc1`, the figure is 28.1 nM; as for `Cc1c(-c2nnc(C3(C(F)(F)F)CCC3)s2)nc(-c2ccc(Cl)cc2Cl)n1-c1ccc(Cl)cc1`, 9.66 nM; as for `Cc1c(-c2nnc(C(C)(C)C)s2)nc(-c2ccccc2Cl)n1-c1ccc(Cl)cc1`, 12.7 nM.
Same read-out and setting: to `Cc1c(-c2nnc(C3(C(F)(F)F)CCC3)o2)nc(-c2ccc(Cl)cc2Cl)n1-c1ccc(Cl)cc1` belongs 16.7 nM.
In turn, `Cc1c(-c2nnc(C3(c4ccc(Cl)cc4)CC3)s2)nc(-c2ccc(Cl)cc2Cl)n1-c1ccc(Cl)cc1` had a half-maximal inhibitory concentration (IC50) in assay [1] of 9.41 nM.
With `Cc1c(-c2nnc(C3(C(F)(F)F)CC3)o2)nc(-c2ccc(Cl)cc2Cl)n1-c1ccc(Cl)cc1`, the half-inhibitory concentration (IC50) in assay [1] was found to be 55.1 nM.
`CCc1c(-c2nnc(C3(c4ccc(Cl)cc4)CC3)s2)nc(-c2ccc(Cl)cc2Cl)n1-c1ccc(Br)cc1` gave a half-maximal inhibitory concentration (IC50) in assay [2] of more than 10000 nM.
Regarding `CCc1c(-c2nnc(C(C)(C)C)o2)nc(-c2ccccc2Cl)n1-c1ccc(Cl)cc1`, in assay [1], the IC50 was 21.3 nM.
Take `CCc1c(-c2nnc(C3(c4ccccc4)CC3)s2)nc(-c2ccc(Cl)cc2Cl)n1-c1ccc(Br)cc1`: in assay [2], the concentration for half-maximal inhibition (IC50) was more than 10000 nM.
Same read-out and setting: to `CCc1c(-c2nnc(C3(c4ccc(Cl)cc4Cl)CC3)o2)nc(-c2ccc(Cl)cc2Cl)n1-c1ccc(Br)cc1` belongs more than 10000 nM.
Still for that read-out and setting: to `CCc1c(-c2nnc(C3(c4ccc(C)cc4)CC3)o2)nc(-c2ccc(Cl)cc2Cl)n1-c1ccc(Br)cc1` belongs more than 10000 nM.
Consider `Cc1c(-c2nnc(C(C)(C)C)o2)nc(-c2ccccc2Cl)n1-c1ccc(Cl)cc1`, for which the 50% inhibitory concentration (IC50) in assay [1] came to 5.29 nM.
With `CCc1c(-c2nnc(C3(c4ccc(OC)cc4)CC3)s2)nc(-c2ccc(Cl)cc2Cl)n1-c1ccc(Br)cc1`, in assay [2], the IC50 was more than 10000 nM.
The same measure, in the same setting: to `CCc1c(-c2nnc(C3(c4ccc(C)cc4)CC3)s2)nc(-c2ccc(Cl)cc2Cl)n1-c1ccc(Br)cc1` belongs more than 10000 nM.
For the molecule `Cc1c(-c2nnc(CC(C)C)o2)nc(-c2ccc(Cl)cc2Cl)n1-c1ccc(Cl)cc1`, the IC50 in assay [1] worked out at 39.4 nM.

For orientation: IC50 means the point on the concentration scale where inhibition reaches its midpoint.

These data come from ChEMBL document CHEMBL1139276, “Diarylimidazolyl oxadiazole and thiadiazole derivatives as cannabinoid CB1 receptor antagonists” (Bioorg Med Chem Lett, 2009).
